Experimental data: PubChem BioAssay (NCI)
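Briefly, cells in 96-well plates were exposed to five compound concentrations for 48 h, and endpoints were estimated by linear interpolation. The concentration for 50% growth inhibition is given as GI50. TGI denotes the concentration required for complete inhibition of growth.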

Key:
Assay in all cases: growth of human tumour cells (NCI), 48 h
[1] = tested on: 786-0 renal
[2] = tested on: CCRF-CEM leukemia
[3] = tested on: SK-MEL-2 melanoma
[4] = tested on: MCF7 breast
[5] = tested on: KM12 colon
[6] = tested on: SNB-75 CNS
[7] = tested on: NCI-H226 lung
[8] = tested on: OVCAR-5 ovarian
[9] = tested on: DU-145 prostate
[10] = tested on: TK-10 renal
[11] = tested on: SK-MEL-28 melanoma
[12] = tested on: SF-295 CNS
[13] = tested on: NCI-H460 lung
[14] = tested on: UO-31 renal

SMILES	TGI [1] [µM]	TGI [2] [µM]	TGI [3] [µM]	TGI [4] [µM]	TGI [5] [µM]	TGI [6] [µM]	TGI [7] [µM]	TGI [8] [µM]	TGI [9] [µM]	TGI [10] [µM]	TGI [11] [µM]	TGI [12] [µM]	TGI [13] [µM]	TGI [14] [µM]	GI50 [2] [µM]	GI50 [13] [µM]	GI50 [4] [µM]	GI50 [5] [µM]	GI50 [12] [µM]
Cc1ccc2c(=O)cc(-c3sc4ccccc4c3C)[nH]c2n1	46.8	58.4	> 100	> 100	36.4	50.8	81.3	> 100	65.9	> 100	71.4	52.1	–	–	–	–	–	–	–
N#Cc1nc(COCCOCc2ccc(F)cc2)oc1N	> 100	> 100	> 100	> 100	> 100	> 100	> 100	> 100	> 100	> 100	> 100	> 100	> 100	> 100	–	–	–	–	–
FC1=C2CCCCCC2SC1(F)F (stereo not drawn)	> 100	18.7	> 100	> 100	> 100	> 100	> 100	> 100	> 100	> 100	> 100	> 100	–	> 100	–	–	–	–	–
CC1=C(C(=O)OC(C)C)C(c2ccccc2C(F)(F)F)C(C(=O)OC(CO[N+](=O)[O-])CO[N+](=O)[O-])=C(C)N1 (stereo not drawn)	14	11.1	47.1	72.2	18.5	16.7	38.5	46.8	> 100	> 100	55.3	21.8	42.6	4.37	–	–	–	–	–
Cc1c(C)c(S(=O)(=O)N(CCCCCON)OCCCN)c(C)c2c1OC(C)(C)CC2	> 100	3.47	29.1	21.8	27.3	27.3	36.7	28.2	17.5	27.5	32.2	29.3	22.4	30.2	–	–	–	–	–
Nc1nc(N)c2nc(CNc3ccc(C(=O)NC(CCCCNC(=O)c4ccccc4C(=O)O)C(=O)O)cc3)cnc2n1 (stereo not drawn)	> 100	> 100	> 100	> 100	> 100	> 100	> 100	> 100	> 100	> 100	> 100	> 100	> 100	> 100	0.00306	0.00424	0.00496	0.00485	0.0191
N#CCCN(CCN(CCC#N)C(=O)Nc1ccccc1)C(=O)Nc1ccccc1	> 100	> 100	> 100	> 100	–	47.8	> 100	> 100	> 100	> 100	> 100	> 100	> 100	> 100	–	–	–	–	–
CC1(C)O[C@@H](CBr)C[C@H](C[C@H]2C[C@@H](O)C[C@@H](CCOCc3ccccc3)O2)O1	39.8	> 100	32	46.2	40.7	36.9	35.5	38.4	61.8	38.3	69.2	32.4	87.1	43.5	–	–	–	–	–
C=CCn1c(-c2ccc(-c3cs/c(=N\N=O)n3CC=C)cc2)cs/c1=N\N=O	> 100	> 100	> 100	> 100	> 100	88.5	> 100	> 100	> 100	> 100	> 100	> 100	> 100	> 100	–	–	–	–	–
CC#CC(O)(C(=O)OC1CC2CCC(C1)N2C)C1CCCC1 (stereo not drawn)	> 100	> 100	> 100	> 100	> 100	> 100	> 100	> 100	> 100	> 100	> 100	> 100	> 100	> 100	–	–	–	–	–
NC(=O)c1cccc([C@@H]2O[C@H](CO)[C@@H](O)[C@H]2O)c1	12.3	15.4	> 100	> 100	15.9	14.4	75.7	> 100	> 50.6	99.1	29.6	28.7	> 100	15.7	–	–	–	–	–
OC(C/C=N/Nc1ccccc1)(C(F)(F)Cl)C(F)(F)Cl	> 10	> 10	> 10	> 10	> 10	> 10	> 10	–	> 10	> 10	> 10	> 10	> 10	> 10	–	–	–	–	–
Cc1nc2c(=O)n3c4c(cccc4c2o1)CCC3	> 100	> 100	> 100	> 100	> 100	> 100	> 100	> 100	> 100	> 100	> 100	> 100	> 100	> 100	–	–	–	–	–
CC1(C)[C@H]2Cc3cc(-c4cc5c(cn4)[C@@H]4C[C@H]([C@@H]5[C@@H]5c6cc(-c7cc8c(cn7)[C@@H]7C[C@H](C8)C7(C)C)ncc6[C@@H]6C[C@H]5C6(C)C)C4(C)C)ncc3[C@@H]1C2	> 100	> 100	> 100	> 100	> 100	> 100	> 100	> 100	> 100	–	> 100	> 100	> 100	> 100	–	–	–	–	–
CN(C)Cc1cc(C(C)(C)C)cc(C2CCCCC2)c1O	41.5	27.1	35	36.4	26.4	22.1	31.2	34.9	27.8	29.1	26.3	–	38.3	32.5	–	–	–	–	–
O=C1c2ccccc2C(=O)c2oc(Br)cc21	2.98	6.66	1.73	1.96	3.2	0.684	3.22	3.16	0.491	6.15	0.934	1.03	2.64	2.85	–	–	–	–	–

SMILES	TGI [1] [µM]	TGI [2] [µM]	TGI [3] [µM]	TGI [4] [µM]	TGI [5] [µM]	TGI [6] [µM]	TGI [7] [µM]	TGI [8] [µM]	TGI [9] [µM]	TGI [10] [µM]	TGI [11] [µM]	TGI [12] [µM]	TGI [13] [µM]	TGI [14] [µM]	GI50 [2] [µM]	GI50 [13] [µM]	GI50 [4] [µM]	GI50 [5] [µM]	GI50 [12] [µM]
O=c1ccn(C2OC(CN(O)CCC3C(CO)OC(n4ccc(=O)[nH]c4=O)C3O)C(O)C2O)c(=O)[nH]1 (stereo not drawn)	> 100	> 100	> 100	> 100	> 100	> 100	> 100	> 100	> 100	> 100	> 100	> 100	> 100	> 100	–	–	–	–	–
COC(=O)c1ccc(NCc2cc(O)ccc2O)cc1	22.3	10.8	36.1	27.3	29.6	38.9	24.9	29.1	24.8	31.6	34.8	35	52.2	26.3	–	–	–	–	–
CCOC(=O)C(=O)C(CCC(=O)c1ccc2ccccc2c1O)C(=O)OCC (stereo not drawn)	> 100	> 100	> 100	> 100	> 100	> 100	> 100	> 100	> 100	–	> 100	> 100	> 100	> 100	–	–	–	–	–
COc1ccc(CCNCCCC2c3ccccc3-c3ccccc32)cc1OC	28.9	49	17.9	20.3	30.4	27.2	31.4	33.4	28.9	27.7	23.1	29.2	18.3	24.4	–	–	–	–	–
CN(C)CC1CN=C(NC(=O)Nc2ccccc2)O1 (stereo not drawn)	> 100	> 100	> 100	> 100	> 100	> 100	> 100	> 100	> 100	> 100	> 100	> 100	> 100	> 100	–	–	–	–	–
CC(C)C(NCc1c(O)ccc2c(-c3ccccc3)cc(=O)oc12)C(=O)O (stereo not drawn)	> 100	> 100	> 100	> 100	> 100	> 100	> 100	> 100	> 100	> 100	> 100	> 100	> 100	> 100	–	–	–	–	–
CCOC(=O)c1c(N2CCCC2)[nH]c(=O)c(C(c2cccs2)c2c(O)c(C(=O)OCC)c(N3CCCC3)[nH]c2=O)c1O	> 100	> 100	> 100	> 100	> 100	> 100	> 100	> 100	> 100	> 100	> 100	> 100	> 100	> 100	–	–	–	–	–
O=c1oc2ccc([N+](=O)[O-])cc2c(Nc2ccc3c(c2)S(=O)(=O)c2ccccc2O3)c1[N+](=O)[O-]	> 100	> 100	> 100	> 100	> 100	> 100	96.8	> 100	> 100	> 100	> 100	> 100	> 100	> 100	–	–	–	–	–
COc1cc(C2C(Cl)C(=O)N2NC(=O)c2ccc(NC(C)=O)cc2OC)ccc1O (stereo not drawn)	33.3	14.6	29.9	38.1	68	80.1	43.7	28.4	43.5	–	97.8	> 100	–	95.5	–	–	–	–	–
CC1=NN=C(N)NC1=CC(Sc1ccc(Cl)cc1)c1c(O)ccc2ccccc12 (stereo not drawn)	> 65.6	31.5	23.2	73.9	36.9	70.2	14	> 61.9	> 84.6	> 100	> 62.6	> 57.7	45.1	> 67.6	–	–	–	–	–
S=C1N=C(Cl)/C(=C\c2ccccc2)N1	> 100	> 31.6	> 100	> 100	> 100	> 100	> 100	> 100	> 100	> 100	> 100	> 100	> 100	> 100	–	–	–	–	–
CC(=O)c1sc(=N)n(-c2c(C)cccc2C)c1C	> 100	> 100	> 100	> 100	> 100	> 100	> 100	> 100	> 100	> 100	> 100	–	> 100	> 100	–	–	–	–	–
O=C1c2ccccc2-c2c1c(-c1cccc(Br)c1)nc1ccc3ccccc3c21	> 100	> 100	> 100	> 100	> 100	> 100	> 100	> 100	> 100	–	> 100	> 100	> 100	> 100	–	–	–	–	–
O=c1[nH]c2c(c(=O)[nH]1)SSC2	17.5	–	14.5	> 54.3	38.8	34.8	41.1	32.4	28.9	29.9	18.7	36.6	27.2	24.2	–	–	–	–	–
CCc1cc2c(oc3cc(C)ccc32)c(=O)n1C	> 10	> 10	> 10	> 10	> 10	> 10	> 10	> 10	> 10	> 10	–	> 10	> 10	> 10	–	–	–	–	–
CC1OC(OC2C(Oc3cc(O)c4c(c3)O[C@H](c3ccc(O)cc3)CC4=O)OC(CO)C(O)C2O)C(O)C(O)C1O (stereo partly drawn)	> 100	> 100	> 100	> 100	> 100	> 100	> 100	> 100	> 100	> 100	> 100	> 100	–	> 100	–	–	–	–	–
